# Measured values reported in patent US20040039053A1, “Use of(-) (3-halomethylphenoxy) (4-halophenyl) acetic acid derivatives for treatment of insulin resistance, type 2 diabetes, hyperlipidemia and hyperuricemia” (priority 2000, published 2004).
# Assays:
# [1] = Plasma hydrolysis of (−) CPTA prodrug esters in human plasma (Example 21); type: in vitro ADME; settings: human plasma (heparinized, pooled), 125 or 250 μM, 37° C., hydrolysis to (−) CPTA; read-out: Plasma T1/2 (converted)
# Procedure: This example illustrates the plasma hydrolysis of various prodrug esters of the (S)-enantiomer of CPTA at physiological conditions. Hydrolysis was monitored and analyzed by HPLC. The hydrolytic product was identified by comparison to authentic (−) CPTA and the hydrolytic rates were calculated. [drawing 83]
# Human plasma (heparinized, pooled) was obtained from Golden West Biololgicals Inc., USA; Plasma incubation was carried out in a Water Bath Shaker (New Brunswick Scientific, Inc.); Sample analyses were carried out on Agilent HPLC 1100 system.
# Prepare 31.25 or 62.5 mM prodrug stock solutions in 100% DMSO. Add 4 μL of 31.25 or 62.5 mM prodrug stock solutions to 1.0 mL of plasma in a microcentrifuge tube to make plasma concentration at 125 or 250 μM, mix gently. Aliquots of 50 μL are transferred to 15 microcentrifuge vials. Three samples are immediately removed to a freezer at about −80° C. (0 time point), the remaining samples are incubated in a bath shaker at 37° C. Three samples are removed at 30 min, 2, 7 and 24 hr, and stored at −80° C. until analysis. The relative concentrations of MBX-compounds are determined by HPLC methods. If there are enough data points, the hydrolytic rate can be calculated using WinNonlin software. Table 10 provides a summary of plasma half-lives of some pro-drug esters and FIGS. 20A-20G illustrate the hydrolytic curves of those prodrug esters.
# C57BL/6J ob/ob mice = assay: Glucose lowering activity of halofenate analogs in ob/ob mice (Example 12); type: in vivo; settings: for Predose Glucose: baseline before dosing
# CYP2C9 = CYP2C9 (Homo sapiens, UniProt P11712)
# CYP2C9, sequence (P11712 whole entry, canonical isoform): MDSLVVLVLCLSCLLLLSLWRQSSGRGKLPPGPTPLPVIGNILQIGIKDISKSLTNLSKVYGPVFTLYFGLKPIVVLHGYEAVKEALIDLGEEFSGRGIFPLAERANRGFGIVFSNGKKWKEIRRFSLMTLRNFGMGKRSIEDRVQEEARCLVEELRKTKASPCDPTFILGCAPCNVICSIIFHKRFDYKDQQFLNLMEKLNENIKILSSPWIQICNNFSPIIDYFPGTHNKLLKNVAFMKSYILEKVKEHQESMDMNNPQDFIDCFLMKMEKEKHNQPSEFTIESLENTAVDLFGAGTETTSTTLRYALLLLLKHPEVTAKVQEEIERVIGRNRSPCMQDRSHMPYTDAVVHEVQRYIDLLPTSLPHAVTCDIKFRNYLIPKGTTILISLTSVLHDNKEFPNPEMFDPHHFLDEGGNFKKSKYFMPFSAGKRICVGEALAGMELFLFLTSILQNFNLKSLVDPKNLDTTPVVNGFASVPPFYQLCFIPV
# CYP2C19 = CYP2C19 (Homo sapiens, UniProt P33261); assay: Cytochrome P450 isoform inhibition in human hepatic microsomes, S-mephenytoin (Example 18); type: in vitro ADME; settings: both sexes, human, pooled human hepatic microsomes, probe S-mephenytoin 50 μM; positive control 10 μM
# CYP2C19, sequence (P33261 whole entry, canonical isoform): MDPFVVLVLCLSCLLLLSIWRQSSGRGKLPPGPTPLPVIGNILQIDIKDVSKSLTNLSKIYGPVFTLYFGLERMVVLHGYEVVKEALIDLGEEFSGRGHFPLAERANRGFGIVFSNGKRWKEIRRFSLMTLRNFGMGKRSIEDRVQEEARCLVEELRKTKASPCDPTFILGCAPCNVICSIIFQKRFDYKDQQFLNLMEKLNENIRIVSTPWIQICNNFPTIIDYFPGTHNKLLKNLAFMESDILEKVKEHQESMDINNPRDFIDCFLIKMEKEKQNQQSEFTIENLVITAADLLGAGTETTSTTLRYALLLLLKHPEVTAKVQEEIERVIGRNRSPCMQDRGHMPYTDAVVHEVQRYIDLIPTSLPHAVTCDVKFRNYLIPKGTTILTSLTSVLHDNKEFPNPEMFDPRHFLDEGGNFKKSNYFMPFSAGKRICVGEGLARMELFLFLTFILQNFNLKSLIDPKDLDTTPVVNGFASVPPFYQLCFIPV
smiles,measurement,setting,value
"COC(=O)C1CCCN1C(=O)COC(=O)C(Oc1cccc(C(F)(F)F)c1)c1ccc(Cl)cc1 (single isomer, unassigned) [Compound 19.19]",half-life,[1],< 0.5 h
"CC(=O)NCCOC(=O)C(Oc1cccc(C(F)(F)F)c1)c1ccc(Br)cc1 (single isomer, unassigned; (-)) [(−)Analog 29]",Predose Glucose,C57BL/6J ob/ob mice; 150 mg/kg group,372.2 ± 17.1 mg/dL
same,6 hours Glucose,C57BL/6J ob/ob mice; single oral dose 150 mg/kg,333.5 ± 16.1 mg/dL
same,time points with significantly reduced plasma glucose,C57BL/6J ob/ob mice; single oral dose 150 mg/kg,6 h
"NC(=O)COC(=O)C(Oc1cccc(C(F)(F)F)c1)c1ccc(Cl)cc1 (single isomer, unassigned; (-)) [(−)Analog 37]",Predose Glucose,C57BL/6J ob/ob mice; 150 mg/kg group,373.4 ± 16.1 mg/dL
same,6 hours Glucose,C57BL/6J ob/ob mice; single oral dose 150 mg/kg,271.7 ± 22.5 mg/dL
same,time points with significantly reduced plasma glucose,C57BL/6J ob/ob mice; single oral dose 150 mg/kg,6 h
"CCOC(=O)COC(=O)C(Oc1cccc(C(F)(F)F)c1)c1ccc(Cl)cc1 (single isomer, unassigned) [Compound 19.12]",half-life,[1],< 0.5 h
CCCCOC(=O)C(Oc1cccc(C(F)(F)F)c1)c1ccc(Cl)cc1 (racemic) [(±)Analog 33],6 hours Glucose,C57BL/6J ob/ob mice; 125 mg/kg oral once a day,227.5 ± 13.2 mg/dL
same,30 hours Glucose,C57BL/6J ob/ob mice; 125 mg/kg oral once a day,298.0 ± 15.3 mg/dL
same,54 hours Glucose,C57BL/6J ob/ob mice; 125 mg/kg oral once a day,286.6 ± 9.9 mg/dL
same,Predose Glucose,C57BL/6J ob/ob mice; 125 mg/kg group,292.0 ± 19.1 mg/dL
"NCC(=O)OCCOC(=O)C(Oc1cccc(C(F)(F)F)c1)c1ccc(Cl)cc1 (single isomer, unassigned) [Compound 19.28]",half-life,[1],< 0.5 h
"CC(C)C(=O)NCCOC(=O)C(Oc1cccc(C(F)(F)F)c1)c1ccc(Cl)cc1 (single isomer, unassigned) [Compound 19.15]",half-life,[1],< 1 h
"O=C(NCCOC(=O)C(Oc1cccc(C(F)(F)F)c1)c1ccc(Cl)cc1)c1cccs1 (single isomer, unassigned) [Compound 19.2]",half-life,[1],< 1 h
"C#CCOC(=O)C(Oc1cccc(C(F)(F)F)c1)c1ccc(Cl)cc1 (single isomer, unassigned; (-)) [Compound 19.3, (−)-propargyl 4-chloro-alpha-(3-trifluoromethylphenoxy)benzeneacetate]",half-life,[1],< 1 h
"O=C(NCCOC(=O)C(Oc1cccc(C(F)(F)F)c1)c1ccc(Cl)cc1)OCc1ccccc1 (single isomer, unassigned) [Compound 19.21]",half-life,[1],< 2 h
"CC(=O)OCCOC(=O)C(Oc1cccc(C(F)(F)F)c1)c1ccc(Cl)cc1 (single isomer, unassigned) [Compound 19.23]",half-life,[1],< 1 h
"CCOC(=O)NCCOC(=O)C(Oc1cccc(C(F)(F)F)c1)c1ccc(Cl)cc1 (single isomer, unassigned; (-)) [Compound 19.9, (−)-2-ethoxycarbonylaminoethyl 4-chloro-alpha-(3-trifluoromethylphenoxy)benzeneacetate]",half-life,[1],< 1 h
"O=C(NCCOC(=O)C(Oc1cccc(C(F)(F)F)c1)c1ccc(Cl)cc1)c1ccncc1 (single isomer, unassigned) [Compound 19.26]",half-life,[1],< 1 h
"O=C(OCC(=O)N1CCOCC1)C(Oc1cccc(C(F)(F)F)c1)c1ccc(Cl)cc1 (single isomer, unassigned) [Compound 19.5]",half-life,[1],< 0.5 h
"CCNC(=O)NCCOC(=O)C(Oc1cccc(C(F)(F)F)c1)c1ccc(Cl)cc1 (single isomer, unassigned) [Compound 19.22]",half-life,[1],< 1 h
"O=C(NCCOC(=O)C(Oc1cccc(C(F)(F)F)c1)c1ccc(Cl)cc1)c1ccccc1 (single isomer, unassigned; (-)) [(−)Analog 36]",Predose Glucose,C57BL/6J ob/ob mice; 150 mg/kg group,373.2 ± 15.5 mg/dL
same,6 hours Glucose,C57BL/6J ob/ob mice; single oral dose 150 mg/kg,281.1 ± 18.2 mg/dL
same,time points with significantly reduced plasma glucose,C57BL/6J ob/ob mice; single oral dose 150 mg/kg,6 h
"O=C(NCCOC(=O)C(Oc1cccc(C(F)(F)F)c1)c1ccc(Cl)cc1)c1cccnc1 (single isomer, unassigned) [Compound 19.20]",half-life,[1],< 0.5 h
"CN(C)C(=O)COC(=O)C(Oc1cccc(C(F)(F)F)c1)c1ccc(Cl)cc1 (single isomer, unassigned) [Compound 19.11]",half-life,[1],< 0.5 h
"Cc1oc(=O)oc1COC(=O)C(Oc1cccc(C(F)(F)F)c1)c1ccc(Cl)cc1 (single isomer, unassigned) [Compound 19.24]",half-life,[1],< 0.5 h
"Nc1ccc(S(=O)(=O)Nc2ccnn2-c2ccccc2)cc1 [SFZ, sulfaphenazole, reference compound]",Tolbutamide 4-OH TB Production,CYP2C9,BQL
"O=C(OCc1ccccc1)C(Oc1cccc(C(F)(F)F)c1)c1ccc(Cl)cc1 (single isomer, unassigned; (-)) [Compound 19.6, (−)-benzyl 4-chloro-alpha-(3-trifluoromethylphenoxy)benzeneacetate]",half-life,[1],6.3 h
CC(=O)NCCOC(=O)C(Oc1cccc(C(F)(F)F)c1)c1ccc(Br)cc1 (racemic) [(±)Analog 29],6 hours Glucose,C57BL/6J ob/ob mice; 125 mg/kg oral once a day,299.7 ± 24.5 mg/dL
same,30 hours Glucose,C57BL/6J ob/ob mice; 125 mg/kg oral once a day,237.4 ± 14.9 mg/dL
same,54 hours Glucose,C57BL/6J ob/ob mice; 125 mg/kg oral once a day,293.3 ± 9.7 mg/dL
same,Predose Glucose,C57BL/6J ob/ob mice; 125 mg/kg group,387.1 ± 16.0 mg/dL
"O=C(OCc1cccnc1)C(Oc1cccc(C(F)(F)F)c1)c1ccc(Cl)cc1 (single isomer, unassigned) [Compound 19.18]",half-life,[1],< 1 h
"CC(OC(=O)OC1CCCCC1)OC(=O)C(Oc1cccc(C(F)(F)F)c1)c1ccc(Cl)cc1 (single isomer, unassigned; (-)) [Compound 19.27, (−)-1-(cyclohexyloxycarbonyloxy)ethyl 4-chloro-alpha-(3-trifluoromethylphenoxy)benzeneacetate]",half-life,[1],< 1 h
CC(=O)NCCOC(=O)C(Oc1cccc(C(F)(F)F)c1)c1ccc(F)cc1 (racemic) [(±)Analog 14],6 hours Glucose,C57BL/6J ob/ob mice; 125 mg/kg oral once a day,328.9 ± 34.1 mg/dL
same,30 hours Glucose,C57BL/6J ob/ob mice; 125 mg/kg oral once a day,267.0 ± 21.3 mg/dL
same,54 hours Glucose,C57BL/6J ob/ob mice; 125 mg/kg oral once a day,293.0 ± 29.4 mg/dL
same,Predose Glucose,C57BL/6J ob/ob mice; 125 mg/kg group,361.0 ± 17.1 mg/dL
O=C(NCCOC(=O)C(Oc1cccc(C(F)(F)F)c1)c1ccc(Cl)cc1)c1ccccc1 (racemic) [(±)Analog 36],6 hours Glucose,C57BL/6J ob/ob mice; 125 mg/kg oral once a day,300.5 ± 27.3 mg/dL
same,30 hours Glucose,C57BL/6J ob/ob mice; 125 mg/kg oral once a day,249.7 ± 8.6 mg/dL
same,54 hours Glucose,C57BL/6J ob/ob mice; 125 mg/kg oral once a day,272.2 ± 18.4 mg/dL
same,Predose Glucose,C57BL/6J ob/ob mice; 125 mg/kg group,329.7 ± 17.6 mg/dL
"O=C(Oc1ccccc1)C(Oc1cccc(C(F)(F)F)c1)c1ccc(Cl)cc1 (single isomer, unassigned) [Compound 19.25]",half-life,[1],< 0.5 h
"CCOC(=O)C(Oc1cccc(C(F)(F)F)c1)c1ccc(Cl)cc1 (single isomer, unassigned) [Compound 19.7]",half-life,[1],< 7 h
"O=C(OCCO)C(Oc1cccc(C(F)(F)F)c1)c1ccc(Cl)cc1 (single isomer, unassigned) [Compound 19.14]",half-life,[1],< 2 h
"O=C(NCCOC(=O)C(Oc1cccc(C(F)(F)F)c1)c1ccc(Cl)cc1)c1ccccc1 (single isomer, unassigned) [Compound 19.4]",half-life,[1],< 1 h
CN(C)C(=O)COC(=O)C(Oc1cccc(C(F)(F)F)c1)c1ccc(Cl)cc1 (racemic) [(±)Analog 38],6 hours Glucose,C57BL/6J ob/ob mice; 125 mg/kg oral once a day,303.2 ± 18.2 mg/dL
same,30 hours Glucose,C57BL/6J ob/ob mice; 125 mg/kg oral once a day,245.6 ± 15.6 mg/dL
same,54 hours Glucose,C57BL/6J ob/ob mice; 125 mg/kg oral once a day,243.1 ± 10.6 mg/dL
same,Predose Glucose,C57BL/6J ob/ob mice; 125 mg/kg group,329.4 ± 18.9 mg/dL
"CN(C)C(=O)COC(=O)C(Oc1cccc(C(F)(F)F)c1)c1ccc(Cl)cc1 (single isomer, unassigned; (-)) [(−)Analog 38]",Predose Glucose,C57BL/6J ob/ob mice; 150 mg/kg group,373.4 ± 16.1 mg/dL
same,6 hours Glucose,C57BL/6J ob/ob mice; single oral dose 150 mg/kg,251.2 ± 23.6 mg/dL
same,time points with significantly reduced plasma glucose,C57BL/6J ob/ob mice; single oral dose 150 mg/kg,6 h
"NC(=O)C1CCCN1C(=O)COC(=O)C(Oc1cccc(C(F)(F)F)c1)c1ccc(Cl)cc1 (single isomer, unassigned) [Compound 19.16]",half-life,[1],< 0.5 h
"O=C(OCC(=O)N1CCC1)C(Oc1cccc(C(F)(F)F)c1)c1ccc(Cl)cc1 (single isomer, unassigned) [Compound 19.13]",half-life,[1],< 0.5 h
NC(=O)COC(=O)C(Oc1cccc(C(F)(F)F)c1)c1ccc(Cl)cc1 (racemic) [(±)Analog 37],6 hours Glucose,C57BL/6J ob/ob mice; 125 mg/kg oral once a day,345.4 ± 19.7 mg/dL
same,30 hours Glucose,C57BL/6J ob/ob mice; 125 mg/kg oral once a day,312.5 ± 21.7 mg/dL
same,54 hours Glucose,C57BL/6J ob/ob mice; 125 mg/kg oral once a day,285.1 ± 14.7 mg/dL
same,time points with significantly lowered plasma glucose,C57BL/6J ob/ob mice; 125 mg/kg oral once a day,54 h
same,Predose Glucose,C57BL/6J ob/ob mice; 125 mg/kg group,387.4 ± 18.8 mg/dL
"COc1ccc2[nH]c([S+]([O-])Cc3ncc(C)c(OC)c3C)nc2c1 (stereo not shown) [OMP, omeprazole, reference compound]","inhibition at 30 min, 10 μM",CYP2C19,50%
"CS(=O)(=O)NCCOC(=O)C(Oc1cccc(C(F)(F)F)c1)c1ccc(Cl)cc1 (single isomer, unassigned) [Compound 19.10]",half-life,[1],< 1 h
"C=CCOC(=O)C(Oc1cccc(C(F)(F)F)c1)c1ccc(Cl)cc1 (single isomer, unassigned) [Compound 19.1]",half-life,[1],5.5 h
"COCCOC(=O)C(Oc1cccc(C(F)(F)F)c1)c1ccc(Cl)cc1 (single isomer, unassigned; (-)) [Compound 19.8, (−)-2-methoxyethyl 4-chloro-alpha-(3-trifluoromethylphenoxy)benzeneacetate]",half-life,[1],< 2 h
"COCC(=O)NCCOC(=O)C(Oc1cccc(C(F)(F)F)c1)c1ccc(Cl)cc1 (single isomer, unassigned) [Compound 19.17]",half-life,[1],< 1 h
